Assay results: PubChem BioAssay (NCI)
Several values for one entry are separate records, joined by “and”; a condition that tells them apart may be missing. Equal values may be shown once.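 Five concentrations, 48 hours, 96-well plates. GI50 marks 50% less growth. Definition used: TGI = concentration required for complete inhibition of growth.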

What was measured:
Assay in all cases: NCI anticancer screen, dose series, 48 h
[1] = tested on: HS 578T breast
[2] = tested on: NCI-H522 lung
[3] = tested on: CCRF-CEM leukemia
[4] = tested on: RPMI-8226 leukemia
[5] = tested on: ACHN renal
[6] = tested on: PC-3 prostate
[7] = tested on: COLO 205 colon
[8] = tested on: HCT-15 colon
[9] = tested on: SK-MEL-5 melanoma
[10] = tested on: EKVX NSCLC

Structure (SMILES) | TGI [1] [µM] | TGI [2] [µM] | TGI [3] [µM] | TGI [4] [µM] | TGI [5] [µM] | TGI [6] [µM] | GI50 [7] [µM] | TGI [7] | TGI [8] [µM] | TGI [9] [µM] | TGI [10] [µM]
CCOC(=O)Oc1cc2c(c(OC)c1OC)-c1ccc(SC)c(=O)cc1C(NC(=O)C(F)(F)F)CC2 (stereo not drawn) | < 0.001 | 0.00253 | 4.92 | 14.1 | 52.8 | > 100 | 0.0447 | 0.523 µM and 1.03 µM | > 100 | 0.00191 | 
COC1=C(N=[N+]=[N-])C(=O)c2ncccc2C1=O | 48.6 | 3.9 |  | 4.89 | 15 | 29 |  | 6.35 µM | 20.4 | 23.4 | 17.3
NC(=Nc1ccc(O)cc1)S(=O)(=O)O | > 100 | > 100 | > 100 |  | > 100 | > 100 |  | > 100 µM | > 100 | > 100 | > 100
Cc1ccc(S(=O)(=O)/N=C(\NN)Nc2ccc(Cl)cc2)cc1 |  |  | > 100 | > 100 | > 100 | > 100 |  | > 100 µM | > 100 | > 100 | > 100
CN(C)c1ccc(/C=C2\N=C(NN)NC2=O)cc1 | > 100 | > 100 | > 100 | > 100 | > 100 | > 100 |  | > 100 µM | > 100 |  | > 100
O=C(Nc1nc2c(=O)[nH]cnc2s1)c1ccccc1 | > 100 | > 100 | > 100 |  | > 100 | > 100 |  | > 100 µM | > 100 | > 100 | > 100
N=c1nnc(=O)c2c(s1)-n1ncc(C(=O)O)c1NN2 |  | > 100 |  | > 100 |  |  |  | > 100 µM |  | > 100 | > 100
COC(=O)c1cc(NC(=O)c2cc(NC(=O)c3cc([N+](=O)[O-])cn3C)cn2C)cn1C |  |  | > 100 | > 100 | > 100 | > 100 |  | > 100 µM | > 100 | 91.9 | > 100
NNc1nc2ccccc2c(=O)n1NC(=O)C(=O)Nc1cccc(C(F)(F)F)c1 | > 100 | > 100 | > 100 | > 100 | > 100 | > 100 |  |  | > 100 | > 100 | > 100
COc1cc2c(c(OC)c1OC)-c1ccc(SC)c(=O)cc1[C@@H](OC(C)=O)CC2 | > 100 |  | 0.0312 | > 59.9 | > 100 | > 100 |  | > 100 µM | > 100 |  | > 100
N#Cc1c(SCc2ccccc2)nc(-c2ccccc2)[nH]c1=S | 92 |  | > 100 | 89.9 | 63.3 | 35.2 |  | 48.8 µM | 50.4 | 54.8 | 93.6
